Read-outs that look alike come from different tables or passages of the source.
Columns and labels:
[1] = tested on: patients with chronic Hypoxemia; assay: Various drugs with or without pre-inhaled pyruvate formulas (Table VII); assay type: in vivo, human; settings: in vivo
Protocol: With the hundreds of patients tested in our various clinical trials, data was gathered as to the type of medications the patients used and the frequency of their use over a six-month period. The patients were asked to rate their medications form 1-10 with 1 being the most irritating with the most side effects and 10 being the best with no irritation and no side effects. In these clinical trials, various drugs were evaluated for irritation, mucus production, and efficacy in humans. The drugs were all evaluated using their current formulations and concentrations against the same formulations with the addition of sodium pyruvate, with the calcium, phosphate and magnesium formula given just prior to the use of their medications. They were instructed to 20 inhale this formula just prior to the use of their medications and to evaluate the effect of their medications on the 1-10 scale.
Patients on the various inhaled medications whether inhaled or taken orally or by IV infusion, were enlisted in the evaluation of the inhaled sodium pyruvate calcium, phosphate and magnesium formula. The patients were tested for their SaO2 levels and those that had SaO2 levels below 92% were asked to enlist in the study. […] After the SaO2 levels were determined prior to and one hour after taking their medications, the patients returned the following day, SaO2 measurements were taken one hour prior to taking their medications. The patients were then handed the hypotonic inhalation formula of sodium pyruvate with calcium, phosphate magnesium formula and instructed to inhale it one hour before taking their medications, SaO2 measurements were then taken one hour after taking their medications.

Smokers = assay: Inhaled nicotine in pyruvate formulas
[2] = Viable non-cancerous cells after incubation with anticancer drugs in various media (Table VIII); assay type: cell-based; parameters: viability: concentration or dose not given beside the values; settings: non-cancerous cells (normal peripheral blood monocytes)
Protocol: Peripheral blood monocytes and U937 monocytic leukemia tumor cells were placed in sterile culture flasks and maintained in culture using Dulbecco's Minimal Essential Medium, with 10% fetal calf serum, supplemented with 2 mM glutamine and Pen/Strep. The cytotoxicity of the cytotoxic agent on the cells was analyzed by propidium iodide exclusion techniques and flow cytometric quantitation. Viability of the cells was quantified as the number of cells that excluded the vital dye trypan blue. Sodium pyruvate was dissolved in distilled water and the solution was adjusted to pH 7.4 with calcium, phosphate and magnesium. Solutions were sterile filtered. Stock solutions were prepared so that the vehicle would not be more than 1% of the total volume of the culture media. H-Thymidine Radiosotopic Incorporation Measurement of Cytotoxity. The membrane surfactant enhancers agents (sodium pyruvate and calcium, phosphate and magnesium), was examined for their ability to decrease the Cytotoxity of Doxorubicin to U937 monocytic leukemia cells and normal peripheral blood monocytes. […] Susceptibility studies were conducted to determine the optimal treatment time of the cells with the […] agents prior to treatment of the cells with the cytotoxic agent. The normal cells and U937 leukemic tumor cells were pretreated separately in “wash out” studies with the single agents alone, and in combination, at the optimal concentration described above for various time periods, washed with fresh medium to remove the agents, and treated with the cytotoxic agent. The co-culture of normal and U937 leukemic […] cells was treated essentially in the same manner except that the cells were not treated separately, but co-cultured. […] The cells were then placed in culture medium without the protective agents. […] Normal and U937 tumor cells were co-cultured and the Cytotoxity of Doxorubicin on the cells was determined by viability assays which examined the differential ability of the cytoprotective compositions alone, and in combinations, to protect the normal cells from the Cytotoxity of the chemotherapeutic agent. The cells were isolated and examined for morphological evidence of cytotoxicity or prevention of cytotoxicity. […] DNA synthesis studies using 3Hthymidine (1 uCi/well) were carried out 4 hours prior to termination of the experiment to determine the effect of the formulations on the proliferation of the cells as a measure of the prevention of cytotoxicity and the extent of Doxorubicin-induced cytotoxicity. Propidium iodide exclusion analysis was carried out for direct quantitation of the cytotoxicity and the prevention of cytotoxicity. Each set of studies was performed in triplicate so that statistical analysis of the significant differences between the treatment groups could be conducted. […] Wash-out studies were conducted to determine viability of the peripheral blood monocytes co-cultured with U937 monocytic leukemia cells after 24 hour pretreatment of the cells with the surfactant enhancer, which is also a mitochondrial protective agent, followed by administration of Doxorubicin.

[3] = tested on: patients with lung diseases including COPD; assay: Comparison of inhaled salts of pyruvate, 5 ml of 0.5 mM solution (Table I); settings: for Increased in FEV-1% lung function: 5 ml of 0.5 mM solution in physiological saline; for Overall Rating 1-10: 1 most negative, 10 best
Protocol: All previous studies using pyruvate to treat Allergic Rhinitis, Asthmatic and COPD patients used only the sodium salt form of pyruvic acid in saline. The drug products that were tested in the six Phase I/II clinical trial were differing concentrations of sodium pyruvate dissolved in 0.9% sodium chloride solution (Saline). These drug products contained 0.5 mM, 1.5 mM, or 5.0 mM of sodium pyruvate in physiological saline. They were administered to normal volunteers and COPD and asthmatics by inhalation therapy. […] Various sodium pyruvate solutions were evaluated in the lungs for their ability to enhance FEV1 values and reduce coughing, and lung tightness.
The amount of the salts delivered in the 5 ml's of the 0.5 mM pyruvate solutions were compared to the amounts of the salts in 5 ml's of human blood. […] When ethyl pyruvate reacts with oxygen radical like hydrogen peroxide, it is converted to ethane and alcohol and Co2 and acetate. Ethane and alcohol are lung irritants.
This formula can also be made by adding 3% calcium phosphate or dicalcium phosphate to the standard 0.5 mM to 30 mM sodium pyruvate saline solution see Table I.

[4] = tested on: patients with sinus & lung diseases including IPF and COPD; assay: Salts of pyruvate as 20 mM nasal sprays (Table IX)
From the text: They never tested the individual salts for their ability to reduce inflammation or increase lung functions.

[5] = tested on: patients suffering from Parkinson; assay: Inhaled pyruvate salts in Parkinson patients; assay type: in vivo, human; settings: 1 mM solution in the calcium, phosphate, magnesium formula, inhaled every day for five weeks
[6] = tested on: patients with lung diseases including COPD; assay: Comparison of inhaled salts of pyruvate, 5 ml of 5 mM solution (Table II); settings: for Increased in FEV-1%: 5 ml of 5 mM solution in saline; for Overall Rating 1-10: 1 most negative, 10 best
[7] = Mucolytic activity with inhaled acetylcysteine; assay type: in vivo, human; settings: with or versus commercial inhaled acetylcysteine
[8] = 5 ml of 0.5 mM solution, inhaled

CN1CCCC1c1cccnc1 (centres unmarked) [Nicotine]
SaO2 Measurements taken after medication and compared to baseline [1]: −3
SaO2 Measurements taken after taking the medication and compared to baseline [1]: +2
SaO2 measurements taken after taking medication and compared to baseline [1]: +4
ability of each patient to determine the effect of nicotine delayed (Smokers; Nicotine delivered only with sodium pyruvate in saline solution): 26%
tolerability (Smokers; nicotine in modified formula sodium pyruvate and calcium, phosphate and magnesium, nasal or lungs): well tolerated

O=c1[nH]c(=O)n([C@H]2C[C@H](O)[C@@H](CO)O2)cc1F [floxuridine]
viability ([2]; Drugs in commercial formula with sodium chloride only, read-out: Percentage of viable non-cancerous cells): 38%
viability ([2]; Drugs in commercial formula with sodium pyruvate with calcium & phosphate & Magnesium ions repeat study, read-out: Percentage of viable non-cancerous cells): 91%
viability ([2]; Drugs in commercial formula with sodium pyruvate with calcium & phosphate & magnesium ions, read-out: Percentage of viable non-cancerous cells): 92%
viability ([2]; Drugs in commercial formula with sodium pyruvate without calcium & phosphate & magnesium, read-out: Percentage of viable non-cancerous cells): 58%
viability ([2]; drug alone, read-out: Percentage of viable cells after incubation with drugs): 38%

magnesium pyruvate
Increased in FEV-1% lung function ([3]; inhaled): 12.0%
Irritation [3, 8]: None
Percentage Increase in SaO2 over baseline [3, 8]: no
Percentage decrease or increase of Nitric Oxide over baseline [3, 8]: −2.0%
Relief of congestion, coughing and lung tightness [3, 8]: 6
Overall Rating 1-10 ([3]; 5 ml of 0.5 mM solution): 7
FEV1 ([3]; 5 mls of a 0.5 mM pyruvate inhalation solution in COPD and asthmatic patients): 10%
Overall Rating 1-10 ([4]; 20 mM (0.22%) nasal spray, 1 most negative, 10 best): 4
Increased in FEV-1% ([4]; in vivo): 4.0%
Irritation ([4]; in vivo): slight
Percentage Increase in SaO2 over baseline ([4]; in vivo): no
Percentage increase of Nitric Oxide over baseline ([4]; in vivo): 5.1%
Relief of congestion, coughing and lung tightness ([4]; in vivo): 6
shaking [5]: also worked
Increased in FEV-1% ([6]; inhaled): 2.0%
Irritation ([6]; 5 ml of 5 mM solution, inhaled): None
Percentage Increase in SaO2 over baseline ([6]; 5 ml of 5 mM solution, inhaled): no
Percentage increase of Nitric Oxide over baseline ([6]; 5 ml of 5 mM solution, inhaled): 5.1%
Relief of congestion, coughing and lung tightness ([6]; 5 ml of 5 mM solution, inhaled): 6
Overall Rating 1-10 ([6]; 5 ml of 5 mM solution): 7

CC(=O)C(=O)N[C@@H](CS)C(=O)O [Pyruvyl-cysteine]
Increased in FEV-1% lung function ([3]; inhaled): 11%
Percentage Increase in SaO2 over baseline [3, 8]: 0%
Percentage decrease or increase of Nitric Oxide over baseline [3, 8]: 0%
Relief of congestion, coughing and lung tightness [3, 8]: 5
Overall Rating 1-10 ([3]; 5 ml of 0.5 mM solution): 8
mucolytic activity [7]: as effective as acetylcysteine
Increased in FEV-1% ([6]; inhaled): 5%
Percentage Increase in SaO2 over baseline ([6]; 5 ml of 5 mM solution, inhaled): 0%
Percentage increase of Nitric Oxide over baseline ([6]; 5 ml of 5 mM solution, inhaled): 1%
Relief of congestion, coughing and lung tightness ([6]; 5 ml of 5 mM solution, inhaled): 8
Overall Rating 1-10 ([6]; 5 ml of 5 mM solution): 8

Source: US11628186B2, “Method and composition for the reduction of viral replication, duration and spread of the COVID-19 and the flu” (priority 2017, dated 2023)
